Oligonucleotides are given in HELM: sugar(base)linkage, 5' to 3'; d 2'-deoxyribose, r ribose, m 2'-O-methylribose, p phosphate. ss, as = sense and antisense strand
Further: test concentration or dose not given here.

This data set addresses UBE2N. Nature of the data set: reporter assay of Huesken 2005. Conditions: siRNA. A general note: Reporter assays use an easily measured gene product as a stand-in for the process of interest.
On to “RNA1{r(G)p.r(C)p.r(A)p.r(G)p.r(A)p.r(U)p.r(C)p.r(C)p.r(G)p.r(C)p.r(A)p.r(C)p.r(A)p.r(G)p.r(U)p.r(U)p.r(C)p.r(U)p.r(G)p.d(T)p.d(T)}|RNA2{r(C)p.r(A)p.r(G)p.r(A)p.r(A)p.r(C)p.r(U)p.r(G)p.r(U)p.r(G)p.r(C)p.r(G)p.r(G)p.r(A)p.r(U)p.r(C)p.r(U)p.r(G)p.r(C)p.d(A)p.d(G)}$$$RNA1{StrandType:ss}|RNA2{StrandType:as}$”, for which the normalised inhibition (eCFP-eYFP dual reporter) is 86.3%.

As to “RNA1{r(A)p.r(U)p.r(C)p.r(C)p.r(G)p.r(C)p.r(A)p.r(C)p.r(A)p.r(G)p.r(U)p.r(U)p.r(C)p.r(U)p.r(G)p.r(C)p.r(U)p.r(A)p.r(U)p.d(T)p.d(T)}|RNA2{r(A)p.r(U)p.r(A)p.r(G)p.r(C)p.r(A)p.r(G)p.r(A)p.r(A)p.r(C)p.r(U)p.r(G)p.r(U)p.r(G)p.r(C)p.r(G)p.r(G)p.r(A)p.r(U)p.d(C)p.d(T)}$$$RNA1{StrandType:ss}|RNA2{StrandType:as}$”, the normalised inhibition (eCFP-eYFP dual reporter) was 54.2%.

“RNA1{r(C)p.r(A)p.r(U)p.r(C)p.r(A)p.r(A)p.r(A)p.r(G)p.r(C)p.r(C)p.r(G)p.r(A)p.r(A)p.r(C)p.r(C)p.r(A)p.r(G)p.r(A)p.r(U)p.d(T)p.d(T)}|RNA2{r(A)p.r(U)p.r(C)p.r(U)p.r(G)p.r(G)p.r(U)p.r(U)p.r(C)p.r(G)p.r(G)p.r(C)p.r(U)p.r(U)p.r(U)p.r(G)p.r(A)p.r(U)p.r(G)p.d(C)p.d(C)}$$$RNA1{StrandType:ss}|RNA2{StrandType:as}$” returned a normalised inhibition (eCFP-eYFP dual reporter) of 84.7%.

Regarding “RNA1{r(U)p.r(C)p.r(C)p.r(U)p.r(U)p.r(C)p.r(C)p.r(A)p.r(G)p.r(A)p.r(A)p.r(G)p.r(A)p.r(A)p.r(U)p.r(A)p.r(C)p.r(C)p.r(C)p.d(T)p.d(T)}|RNA2{r(G)p.r(G)p.r(G)p.r(U)p.r(A)p.r(U)p.r(U)p.r(C)p.r(U)p.r(U)p.r(C)p.r(U)p.r(G)p.r(G)p.r(A)p.r(A)p.r(G)p.r(G)p.r(A)p.d(A)p.d(T)}$$$RNA1{StrandType:ss}|RNA2{StrandType:as}$”, the normalised inhibition (eCFP-eYFP dual reporter) was 36.9%.

Regarding “RNA1{r(G)p.r(A)p.r(A)p.r(C)p.r(C)p.r(A)p.r(G)p.r(U)p.r(U)p.r(C)p.r(C)p.r(U)p.r(G)p.r(G)p.r(C)p.r(A)p.r(U)p.r(C)p.r(A)p.d(T)p.d(T)}|RNA2{r(U)p.r(G)p.r(A)p.r(U)p.r(G)p.r(C)p.r(C)p.r(A)p.r(G)p.r(G)p.r(A)p.r(A)p.r(C)p.r(U)p.r(G)p.r(G)p.r(U)p.r(U)p.r(C)p.d(T)p.d(G)}$$$RNA1{StrandType:ss}|RNA2{StrandType:as}$”, the normalised inhibition (eCFP-eYFP dual reporter) was 36%.

“RNA1{r(A)p.r(C)p.r(G)p.r(C)p.r(C)p.r(C)p.r(G)p.r(U)p.r(U)p.r(A)p.r(U)p.r(U)p.r(U)p.r(U)p.r(C)p.r(A)p.r(U)p.r(G)p.r(U)p.d(T)p.d(T)}|RNA2{r(A)p.r(C)p.r(A)p.r(U)p.r(G)p.r(A)p.r(A)p.r(A)p.r(A)p.r(U)p.r(A)p.r(A)p.r(C)p.r(G)p.r(G)p.r(G)p.r(C)p.r(G)p.r(U)p.d(T)p.d(G)}$$$RNA1{StrandType:ss}|RNA2{StrandType:as}$” displayed a normalised inhibition (eCFP-eYFP dual reporter) of 62.4%.

The substance “RNA1{r(A)p.r(U)p.r(U)p.r(U)p.r(U)p.r(C)p.r(A)p.r(U)p.r(G)p.r(U)p.r(G)p.r(G)p.r(U)p.r(C)p.r(A)p.r(U)p.r(U)p.r(G)p.r(C)p.d(T)p.d(T)}|RNA2{r(G)p.r(C)p.r(A)p.r(A)p.r(U)p.r(G)p.r(A)p.r(C)p.r(C)p.r(A)p.r(C)p.r(A)p.r(U)p.r(G)p.r(A)p.r(A)p.r(A)p.r(A)p.r(U)p.d(A)p.d(A)}$$$RNA1{StrandType:ss}|RNA2{StrandType:as}$” showed a normalised inhibition (eCFP-eYFP dual reporter) of 47.1%.

For the substance “RNA1{r(U)p.r(C)p.r(C)p.r(C)p.r(A)p.r(A)p.r(U)p.r(C)p.r(C)p.r(A)p.r(G)p.r(A)p.r(U)p.r(G)p.r(A)p.r(U)p.r(C)p.r(C)p.r(A)p.d(T)p.d(T)}|RNA2{r(U)p.r(G)p.r(G)p.r(A)p.r(U)p.r(C)p.r(A)p.r(U)p.r(C)p.r(U)p.r(G)p.r(G)p.r(A)p.r(U)p.r(U)p.r(G)p.r(G)p.r(G)p.r(A)p.d(G)p.d(C)}$$$RNA1{StrandType:ss}|RNA2{StrandType:as}$”, the normalised inhibition (eCFP-eYFP dual reporter) was 78.4%.

In turn, “RNA1{r(G)p.r(A)p.r(U)p.r(C)p.r(C)p.r(A)p.r(U)p.r(U)p.r(A)p.r(G)p.r(C)p.r(A)p.r(A)p.r(A)p.r(U)p.r(G)p.r(A)p.r(U)p.r(G)p.d(T)p.d(T)}|RNA2{r(C)p.r(A)p.r(U)p.r(C)p.r(A)p.r(U)p.r(U)p.r(U)p.r(G)p.r(C)p.r(U)p.r(A)p.r(A)p.r(U)p.r(G)p.r(G)p.r(A)p.r(U)p.r(C)p.d(A)p.d(T)}$$$RNA1{StrandType:ss}|RNA2{StrandType:as}$” came in with a normalised inhibition (eCFP-eYFP dual reporter) of 61.3%.

Substance “RNA1{r(G)p.r(A)p.r(A)p.r(G)p.r(A)p.r(C)p.r(C)p.r(A)p.r(A)p.r(C)p.r(G)p.r(A)p.r(A)p.r(G)p.r(C)p.r(C)p.r(C)p.r(A)p.r(A)p.d(T)p.d(T)}|RNA2{r(U)p.r(U)p.r(G)p.r(G)p.r(G)p.r(C)p.r(U)p.r(U)p.r(C)p.r(G)p.r(U)p.r(U)p.r(G)p.r(G)p.r(U)p.r(C)p.r(U)p.r(U)p.r(C)p.d(C)p.d(A)}$$$RNA1{StrandType:ss}|RNA2{StrandType:as}$” displayed a normalised inhibition (eCFP-eYFP dual reporter) of 85.4%.

Take “RNA1{r(U)p.r(A)p.r(U)p.r(U)p.r(C)p.r(C)p.r(U)p.r(U)p.r(C)p.r(C)p.r(A)p.r(G)p.r(A)p.r(A)p.r(G)p.r(A)p.r(A)p.r(U)p.r(A)p.d(T)p.d(T)}|RNA2{r(U)p.r(A)p.r(U)p.r(U)p.r(C)p.r(U)p.r(U)p.r(C)p.r(U)p.r(G)p.r(G)p.r(A)p.r(A)p.r(G)p.r(G)p.r(A)p.r(A)p.r(U)p.r(A)p.d(G)p.d(T)}$$$RNA1{StrandType:ss}|RNA2{StrandType:as}$”: the normalised inhibition (eCFP-eYFP dual reporter) was 83%.

“RNA1{r(G)p.r(G)p.r(U)p.r(C)p.r(C)p.r(C)p.r(C)p.r(A)p.r(G)p.r(C)p.r(A)p.r(C)p.r(U)p.r(G)p.r(C)p.r(A)p.r(G)p.r(A)p.r(U)p.d(T)p.d(T)}|RNA2{r(A)p.r(U)p.r(C)p.r(U)p.r(G)p.r(C)p.r(A)p.r(G)p.r(U)p.r(G)p.r(C)p.r(U)p.r(G)p.r(G)p.r(G)p.r(G)p.r(A)p.r(C)p.r(C)p.d(A)p.d(C)}$$$RNA1{StrandType:ss}|RNA2{StrandType:as}$” had a normalised inhibition (eCFP-eYFP dual reporter) of 62.2%.

On to “RNA1{r(A)p.r(G)p.r(A)p.r(A)p.r(U)p.r(A)p.r(C)p.r(C)p.r(C)p.r(A)p.r(A)p.r(U)p.r(G)p.r(G)p.r(C)p.r(A)p.r(G)p.r(C)p.r(C)p.d(T)p.d(T)}|RNA2{r(G)p.r(G)p.r(C)p.r(U)p.r(G)p.r(C)p.r(C)p.r(A)p.r(U)p.r(U)p.r(G)p.r(G)p.r(G)p.r(U)p.r(A)p.r(U)p.r(U)p.r(C)p.r(U)p.d(T)p.d(C)}$$$RNA1{StrandType:ss}|RNA2{StrandType:as}$”, for which the normalised inhibition (eCFP-eYFP dual reporter) was 44.7%.

“RNA1{r(A)p.r(C)p.r(C)p.r(A)p.r(G)p.r(U)p.r(U)p.r(C)p.r(C)p.r(U)p.r(G)p.r(G)p.r(C)p.r(A)p.r(U)p.r(C)p.r(A)p.r(A)p.r(A)p.d(T)p.d(T)}|RNA2{r(U)p.r(U)p.r(U)p.r(G)p.r(A)p.r(U)p.r(G)p.r(C)p.r(C)p.r(A)p.r(G)p.r(G)p.r(A)p.r(A)p.r(C)p.r(U)p.r(G)p.r(G)p.r(U)p.d(T)p.d(C)}$$$RNA1{StrandType:ss}|RNA2{StrandType:as}$” yielded a normalised inhibition (eCFP-eYFP dual reporter) of 97.4%.

(Values after the OligoGym collection.)
